Test results reported in patent US12102648B2, “Orally-bioavailable nucleoside analogs” (priority 2021, dated 2024).
Like-named read-outs stand apart in the source and are kept apart here.

Experiment: in vitro
Format: in vitro ADME
Details: human
Procedure: The bidirectional permeability of compounds across the Caco-2 cell monolayer was assessed. The Caco-2 model is a widely used in vitro model for small intestinal absorption and potential for efflux.
Cell culture. Caco-2 cells were grown in DMEM supplemented with 10% fetal bovine serum (FBS), 1% Penicillin-Streptomycin and 1% MEM NEAA. The cells were incubated at 37° C., 5% CO2/95% air and saturated humidity. After reaching 80-90% confluency, the cells were gently detached with trypsin. Cells at passage 39 were seeded on the 24-well BD insert system at the density of 8×10^4 cells/cm^2 and cultured for 19 days with medium changed every 2-3 days. Measure the transepithelial electrical resistance (TEER) value of each well. The wells can be used only when their TEER values are greater than 600 Ohms/cm^2.
Transport assay. After removing the cell culture medium from the 24-well insert plate, the cells were rinsed with warm transport buffer. Appropriate dosing and receiving solutions were applied to the donor and receiver chambers to initiate the transport assay in apical to basolateral (A to B) or basolateral to apical (B to A) directions ([…] for apical and basolateral wells, respectively). Duplicate wells in each direction were used for the test compound and control compound. The plate was incubated in CO2 incubator at 37° C., with 5% CO2/95% air and saturated humidity without shaking. The sample after 10-minute incubation was used as the T0 sample, and the sample after 90-minute incubation was used as the T90 sample. To and T90 samples were collected from the donor and receiver side of each well at the designed timepoint, mixed with the transport buffer and acetonitrile/MeOH (1:1, v/v) and the internal standard for LC/MS/MS analysis. All samples were vortexed and centrifuged at 4000 rpm at 4° C. for 15 minutes, diluted with pure water and stored at 4° C. before bioanalysis by LC/MS/MS.
Sample analysis. The concentrations of test compounds and control compounds in Caco-2 cells were quantitatively determined by LC/MS/MS method after protein precipitation.
Calculations. The apparent permeability (Papp, cm/s), efflux ratio (ER) and recovery parameters were calculated for Caco-2 drug transport assay using the following equations:
[formula] [formula] where VR is the solution volume in the receiver chamber (0.4 mL on the apical side, 1.2 mL on the basolateral side); Area is the surface area for the insert membrane, i.e., 0.3 cm^2 for the area of the monolayer; Time is incubation time, expressed in seconds, i.e., 5400 s (90 min) for the current experiment; Co is the initial concentration of test compound or peak area ratio of control compounds in the donor chamber (μM); VD is the volume in the donor chambers (0.4 mL on the apical side, 1.2 mL on the basolateral side); CD and CR are the final concentrations of test compounds or peak area ratio of control compounds in donor and receiver chambers, respectively.
Compounds with Papp<1.0 are classified as low permeability, Papp between 1-10 are classified as medium permeability, and Papp≥10 are classified as high permeability. An efflux ratio (ER)>2 indicates the compounds are potential substrates for intestinal cell efflux transporters.

[1] = Caco-2 monolayer, apical to basolateral, 90-minute incubation, read-out: Papp, A-B
[2] = Caco-2 monolayer, basolateral to apical, 90-minute incubation, read-out: Papp, B-A
[3] = Caco-2 monolayer, ER>2 indicates potential efflux transporter substrate, read-out: ER (efflux ratio)

| Structure (SMILES) | Papp A→B at 90 min [1] | Papp B→A at 90 min [2] | efflux ratio at 90 min [3] | Papp A→B at 90 min (Caco-2) | Papp B→A at 90 min (Caco-2) | efflux ratio at 90 min (Caco-2) |
| --- | --- | --- | --- | --- | --- | --- |
| CC(=O)OC[C@H]1O[C@@](C#N)(c2ccc3c(N)ncnn23)[C@H](O)[C@@H]1OC(=O)Cc1ccccc1 [Compound 52, (2R,3S,4R,5R)-2-(acetoxymethyl)-5-(4-aminopyrrolo[2,1-f][1,2,4]triazin-7-yl)-5-cyano-4-hydroxytetrahydrofuran-3-yl 2-phenylacetate] | 1.4 ×10⁻⁶ cm/s | 0.89 ×10⁻⁶ cm/s | 0.65 |  |  |  |
| CC(=O)OC[C@H]1O[C@@](C#N)(c2ccc3c(N)ncnn23)[C@H](O)[C@@H]1OC(=O)C(C)C [Compound 54, (2R,3S,4R,5R)-2-(acetoxymethyl)-5-(4-aminopyrrolo[2,1-f][1,2,4]triazin-7-yl)-5-cyano-4-hydroxytetrahydrofuran-3-yl isobutyrate] |  |  |  | 2.6 ×10⁻⁶ cm/s | 2.4 ×10⁻⁶ cm/s | 0.94 |
| CC(=O)OC[C@H]1O[C@@](C#N)(c2ccc3c(N)ncnn23)[C@H](O)[C@@H]1OCOC(=O)C(C)(C)C [Compound 56, {[(2R,3S,4R,5R)-2-[(acetyloxy)methyl]-5-{4-aminopyrrolo[2,1-f][1,2,4]triazin-7-yl}-5-cyano-4-hydroxyoxolan-3-yl]oxy}methyl 2,2-dimethylpropanoate] |  |  |  | 4.7 ×10⁻⁶ cm/s | 4 ×10⁻⁶ cm/s | 0.84 |
| CC(C)C(=O)OC[C@H]1O[C@@](C#N)(c2ccc3c(N)ncnn23)[C@H](O)[C@@H]1OC(=O)CC1CCCCC1 [Compound 58, ((2R,3S,4R,5R)-5-(4-aminopyrrolo[2,1-f][1,2,4]triazin-7-yl)-5-cyano-3-(2-cyclohexylacetoxy)-4-hydroxytetrahydrofuran-2-yl)methyl isobutyrate] |  |  |  | 4.1 ×10⁻⁶ cm/s | 2.1 ×10⁻⁶ cm/s | 0.5 |
| CC(C)C(=O)OC[C@H]1O[C@@](C#N)(c2ccc3c(N)ncnn23)[C@H](O)[C@@H]1OC(=O)Cc1ccccc1 [Compound 60, ((2R,3S,4R,5R)-5-(4-aminopyrrolo[2,1-f][1,2,4]triazin-7-yl)-5-cyano-4-hydroxy-3-(2-phenylacetoxy)tetrahydrofuran-2-yl)methyl isobutyrate] | 2.8 ×10⁻⁶ cm/s | 1.7 ×10⁻⁶ cm/s | 0.58 |  |  |  |
| CC(C)C(=O)OC[C@H]1O[C@@](C#N)(c2ccc3c(N)ncnn23)[C@H](O)[C@@H]1OC(=O)C(C)C [Compound 62, (2R,3S,4R,5R)-5-(4-aminopyrrolo[2,1-f][1,2,4]triazin-7-yl)-5-cyano-4-hydroxy-2-((isobutyryloxy)methyl)tetrahydrofuran-3-yl isobutyrate] |  |  |  | 3 ×10⁻⁶ cm/s | 2.4 ×10⁻⁶ cm/s | 0.8 |
| CC(C)C(=O)OC[C@H]1O[C@@](C#N)(c2ccc3c(N)ncnn23)[C@H](O)[C@@H]1OCOC(=O)C(C)(C)C [Compound 64, (((2R,3S,4R,5R)-5-(4-aminopyrrolo[2,1-f][1,2,4]triazin-7-yl)-5-cyano-4-hydroxy-2-((isobutyryloxy)methyl)tetrahydrofuran-3-yl)oxy)methyl pivalate] |  |  |  | 5.9 ×10⁻⁶ cm/s | 7.1 ×10⁻⁶ cm/s | 1.2 |
| CCC(=O)OC[C@H]1O[C@@](C#N)(c2ccc3c(N)ncnn23)[C@H](O)[C@@H]1OC(=O)CC1CCCCC1 [Compound 66, [(2R,3S,4R,5R)-5-{4-aminopyrrolo[2,1-f][1,2,4]triazin-7-yl}-5-cyano-3-[(2-cyclohexylacetyl)oxy]-4-hydroxyoxolan-2-yl]methyl propanoate] |  |  |  | 2.7 ×10⁻⁶ cm/s | 0.36 ×10⁻⁶ cm/s | 0.13 |
| CCC(=O)OC[C@H]1O[C@@](C#N)(c2ccc3c(N)ncnn23)[C@H](O)[C@@H]1OC(=O)[C@@H](N)C(C)C [Compound 67, (2R,3S,4R,5R)-5-{4-aminopyrrolo[2,1-f][1,2,4]triazin-7-yl}-5-cyano-4-hydroxy-2-[(propanoyloxy)methyl]oxolan-3-yl(2S)-2-amino-3-methylbutanoate] |  |  |  | 0.3 ×10⁻⁶ cm/s | 0.1 ×10⁻⁶ cm/s | 0.33 |
| CCC(=O)OC[C@H]1O[C@@](C#N)(c2ccc3c(N)ncnn23)[C@H](O)[C@@H]1OC(=O)Cc1ccccc1 [Compound 68, ((2R,3S,4R,5R)-5-(4-aminopyrrolo[2,1-f][1,2,4]triazin-7-yl)-5-cyano-4-hydroxy-3-(2-phenylacetoxy)tetrahydrofuran-2-yl)methyl propionate] | 3.3 ×10⁻⁶ cm/s | 9.3 ×10⁻⁶ cm/s | 2.8 |  |  |  |
| CCC(=O)OC[C@H]1O[C@@](C#N)(c2ccc3c(N)ncnn23)[C@H](O)[C@@H]1OC(=O)C(C)C [Compound 70, [(2R,3S,4R,5R)-5-{4-aminopyrrolo[2,1-f][1,2,4]triazin-7-yl}-5-cyano-4-hydroxy-3-[(2-methylpropanoyl)oxy]oxolan-2-yl]methyl propanoate] |  |  |  | 1.8 ×10⁻⁶ cm/s | 1.6 ×10⁻⁶ cm/s | 0.82 |
| CCC(=O)OC[C@H]1O[C@@](C#N)(c2ccc3c(N)ncnn23)[C@H](O)[C@@H]1OC(=O)CC [Compound 71] | 0.94 ×10⁻⁶ cm/s | 2.3 ×10⁻⁶ cm/s | 2.4 |  |  |  |
| CCC(=O)OC[C@H]1O[C@@](C#N)(c2ccc3c(N)ncnn23)[C@H](O)[C@@H]1OCOC(=O)C(C)(C)C [Compound 72, {[(2R,3S,4R,5R)-5-{4-aminopyrrolo[2,1-f][1,2,4]triazin-7-yl}-5-cyano-4-hydroxy-2-[(propanoyloxy)methyl]oxolan-3-yl]oxy}methyl 2,2-dimethylpropanoate] |  |  |  | 5.8 ×10⁻⁶ cm/s | 3.2 ×10⁻⁶ cm/s | 0.55 |
| CCCCCOC(=O)Nc1ncnn2c([C@]3(C#N)O[C@H](CO)[C@@H](O)[C@H]3O)ccc12 [Compound 81, pentyl (7-((2R,3R,4S,5R)-2-cyano-3,4-dihydroxy-5-(hydroxymethyl)tetrahydrofuran-2-yl)pyrrolo[2,1-f][1,2,4]triazin-4-yl)carbamate] |  |  |  | 1 ×10⁻⁶ cm/s | 14.7 ×10⁻⁶ cm/s | 14 |
| CC(C)[C@H](N)C(=O)Nc1ncnn2c([C@]3(C#N)O[C@H](CO)[C@@H](O)[C@H]3O)ccc12 [Compound 83, (2S)-2-amino-N-{7-[(2R,3R,4S,5R)-2-cyano-3,4-dihydroxy-5-(hydroxymethyl)oxolan-2-yl]pyrrolo[2,1-f][1,2,4]triazin-4-yl}-3-methylbutanamide] |  |  |  | 0.07 ×10⁻⁶ cm/s | 0.2 ×10⁻⁶ cm/s | 3 |
| N#C[C@@]1(c2ccc3c(NC(=O)c4ccccc4)ncnn23)O[C@H](CO)[C@@H](O)[C@H]1O [Compound 85, N-(7-((2R,3R,4S,5R)-2-cyano-3,4-dihydroxy-5-(hydroxymethyl)tetrahydrofuran-2-yl)pyrrolo[2,1-f][1,2,4]triazin-4-yl)benzamide] |  |  |  | 0.37 ×10⁻⁶ cm/s | 11 ×10⁻⁶ cm/s | 31 |
| CCCCCOC(=O)Nc1ncnn2c([C@]3(C#N)O[C@H](COC(=O)[C@@H](N)C(C)C)[C@@H](O)[C@H]3O)ccc12 [Compound 86, ((2R,3S,4R,5R)-5-cyano-3,4-dihydroxy-5-(4-(((pentyloxy)carbonyl)amino)pyrrolo[2,1-f][1,2,4]triazin-7-yl)tetrahydrofuran-2-yl)methyl L-valinate] |  |  |  | 0.33 ×10⁻⁶ cm/s | 11 ×10⁻⁶ cm/s | 35 |
| CCCCCOC(=O)Nc1ncnn2c([C@]3(C#N)O[C@H](COC(C)=O)[C@@H](O)[C@H]3O)ccc12 [Compound 87, ((2R,3S,4R,5R)-5-cyano-3,4-dihydroxy-5-(4-(((pentyloxy)carbonyl)amino)pyrrolo[2,1-f][1,2,4]triazin-7-yl)tetrahydrofuran-2-yl)methyl acetate] |  |  |  | 5.5 ×10⁻⁶ cm/s | 14 ×10⁻⁶ cm/s | 2.7 |
| CCCCCOC(=O)Nc1ncnn2c([C@]3(C#N)O[C@H](COC(=O)CC4CCCCC4)[C@@H](O)[C@H]3O)ccc12 [Compound 88, ((2R,3S,4R,5R)-5-cyano-3,4-dihydroxy-5-(4-(((pentyloxy)carbonyl)amino)pyrrolo[2,1-f][1,2,4]triazin-7-yl)tetrahydrofuran-2-yl)methyl 2-cyclohexylacetate] |  |  |  | 2.1 ×10⁻⁶ cm/s | 1.6 ×10⁻⁶ cm/s | 0.78 |
